Source: patent publication US8952157B2, “Apoptosis-inducing agents for the treatment of cancer and immune and autoimmune diseases” (AbbVie Inc., priority 2008, dated 2015)

Target: GST-Bcl-2 (Homo sapiens (Human), UniProt P10415)
Assay: Time Resolved-Fluorescence Resonance Energy Transfer (TR-FRET) Bcl-2 binding assay
Conditions: GST-Bcl-2 1 nM, F-Bak peptide probe 100 nM, Tb-anti-GST antibody 1 nM; Ki by Wang's equation
Summary of the method: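 Competition TR-FRET: GST-Bcl-2 with fluorescent Bak peptide probe and Tb-anti-GST antibody, compounds serially diluted from 50 μM (2× start, 10% DMSO).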

Chain of GST-Bcl-2 (P10415 whole entry): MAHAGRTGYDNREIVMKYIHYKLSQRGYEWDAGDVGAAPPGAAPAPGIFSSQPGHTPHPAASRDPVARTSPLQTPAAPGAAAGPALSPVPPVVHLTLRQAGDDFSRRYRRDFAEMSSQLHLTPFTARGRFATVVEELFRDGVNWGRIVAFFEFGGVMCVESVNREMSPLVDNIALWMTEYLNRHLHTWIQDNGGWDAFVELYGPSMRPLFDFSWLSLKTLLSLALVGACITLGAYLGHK

Question: With `CC1(C)CCC(CN2CCN(c3ccc(C(=O)NS(=O)(=O)c4ccc(NCC5CCOCC5)c([N+](=O)[O-])c4)c(Oc4cc(N)nc(Br)c4)c3)CC2)=C(c2ccc(Cl)cc2)C1` [Example 379, 2-[(2-amino-6-bromopyridin-4-yl)oxy]-4-(4-{[2-(4-chlorophenyl)-4,4-dimethylcyclohex-1-en-1-yl]methyl}piperazin-1-yl)-N-({3-nitro-4-[(tetrahydro-2H-pyran-4-ylmethyl)amino]phenyl}sulfonyl)benzamide] as the compound, how does the Ki read?
Answer: Its Ki is 17.9 nM.

Question: For `CN1CCC(Nc2ccc(S(=O)(=O)NC(=O)c3ccc(N4CCN(Cc5cc6c(cc5-c5ccc(Cl)cc5)OCO6)CC4)cc3Oc3ccccc3Cl)cc2[N+](=O)[O-])CC1` [Example 183, 2-(2-chlorophenoxy)-4-(4-{[6-(4-chlorophenyl)-1,3-benzodioxol-5-yl]methyl}piperazin-1-yl)-N-({4-[(1-methylpiperidin-4-yl)amino]-3-nitrophenyl}sulfonyl)benzamide], which Ki is on record?
Answer: Its Ki is 2.53 nM.

Question: Which Ki does the source give for `CC1(C)CCC(CN2CCN(c3ccc(C(=O)NS(=O)(=O)c4ccc(NCC5CCOCC5)c([N+](=O)[O-])c4)c(Oc4ccc(O)nc4)c3)CC2)=C(c2ccc(Cl)cc2)C1` [Example 283, 4-(4-{[2-(4-chlorophenyl)-4,4-dimethylcyclohex-1-en-1-yl]methyl}piperazin-1-yl)-2-[(6-hydroxypyridin-3-yl)oxy]-N-({3-nitro-4-[(tetrahydro-2H-pyran-4-ylmethyl)amino]phenyl}sulfonyl)benzamide] here?
Answer: The Ki was 17.2 nM.

Question: Which Ki does the source give for `CC1(C)CCC(CN2CCN(c3ccc(C(=O)NS(=O)(=O)c4ccc(NC5CCN(C6CC6)CC5)c([N+](=O)[O-])c4)c(Oc4cccc(F)c4F)c3)CC2)=C(c2ccc(Cl)cc2)C1` [Example 121, 4-(4-{[2-(4-chlorophenyl)-4,4-dimethylcyclohex-1-en-1-yl]methyl}piperazin-1-yl)-N-({4-[(1-cyclopropylpiperidin-4-yl)amino]-3-nitrophenyl}sulfonyl)-2-(2,3-difluorophenoxy)benzamide] here?
Answer: The Ki was 0.081 nM.

Question: Which Ki does the source give for `CC1(C)CC(c2ccc(Cl)cc2)=C(CN2CCN(c3ccc(C(=O)NS(=O)(=O)c4ccc(NC5CCC(N6CCOCC6)CC5)c([N+](=O)[O-])c4)c(Oc4cc5cc[nH]c5cc4F)c3)CC2)CO1` (stereo not shown) [Example 295, 4-(4-{[4-(4-chlorophenyl)-6,6-dimethyl-5,6-dihydro-2H-pyran-3-yl]methyl}piperazin-1-yl)-2-[(6-fluoro-1H-indol-5-yl)oxy]-N-({4-[(4-morpholin-4-ylcyclohexyl)amino]-3-nitrophenyl}sulfonyl)benzamide] here?
Answer: Its Ki is 0.077 nM.

Question: Which Ki does the source give for `CN1CCN(Nc2ccc(S(=O)(=O)NC(=O)c3ccc(N4CCN(CC5=C(c6ccc(Cl)cc6)CC(C)(C)OC5)CC4)cc3Oc3cccc(F)c3F)cc2[N+](=O)[O-])CC1` [Example 186, 4-(4-{[4-(4-chlorophenyl)-6,6-dimethyl-5,6-dihydro-2H-pyran-3-yl]methyl}piperazin-1-yl)-2-(2,3-difluorophenoxy)-N-({4-[(4-methylpiperazin-1-yl)amino]-3-nitrophenyl}sulfonyl)benzamide] here?
Answer: Its Ki is 0.035 nM.

Question: Which Ki does the source give for `CC1(C)CCC(CN2CCN(c3ccc(C(=O)NS(=O)(=O)c4ccc(NC5CCN(C6CCOCC6)CC5)c([N+](=O)[O-])c4)c(Oc4cccc5[nH]c(C(F)(F)F)cc45)c3)CC2)=C(c2ccc(Cl)cc2)C1` [Example 215, 4-(4-{[2-(4-chlorophenyl)-4,4-dimethylcyclohex-1-en-1-yl]methyl}piperazin-1-yl)-N-({3-nitro-4-[(1-tetrahydro-2H-pyran-4-ylpiperidin-4-yl)amino]phenyl}sulfonyl)-2-{[2-(trifluoromethyl)-1H-indol-4-yl]oxy}benzamide] here?
Answer: Its Ki is 2.95 nM.

Question: For `CCN(CC)C1CCC(Nc2ccc(S(=O)(=O)NC(=O)c3ccc(N4CCN(CC5=C(c6ccc(Cl)cc6)CC(C)(C)CC5)CC4)cc3Oc3cccc(Cl)c3)cc2[N+](=O)[O-])CC1` (stereo not shown) [Example 204, 2-(3-chlorophenoxy)-4-(4-{[2-(4-chlorophenyl)-4,4-dimethylcyclohex-1-en-1-yl]methyl}piperazin-1-yl)-N-[(4-{[4-(diethylamino)cyclohexyl]amino}-3-nitrophenyl)sulfonyl]benzamide], which Ki is on record?
Answer: Its Ki is 0.075 nM.

Question: `CC1(C)CCC(CN2CCN(c3ccc(C(=O)NS(=O)(=O)c4ccc(NCCCN5CCOCC5)c([N+](=O)[O-])c4)c(Oc4cc(Cl)ccc4Cl)c3)CC2)=C(c2ccc(Cl)cc2)C1` [Example 67, 4-(4-((2-(4-chlorophenyl)-4,4-dimethylcyclohex-1-en-1-yl)methyl)piperazin-1-yl)-2-(2,5-dichlorophenoxy)-N-((4-((3-morpholin-4-ylpropyl)amino)-3-nitrophenyl)sulfonyl)benzamide] was tested. Which Ki did it give?
Answer: The Ki was 0.807 nM.

Question: For `CC1(C)CCC(CN2CCN(c3ccc(C(=O)NS(=O)(=O)c4ccc(N[C@@H]5CCN(Cc6cscn6)C[C@@H]5O)c([N+](=O)[O-])c4)c(Oc4cc5cc[nH]c5cc4F)c3)CC2)=C(c2ccc(Cl)cc2)C1` [Example 249, 4-(4-{[2-(4-chlorophenyl)-4,4-dimethylcyclohex-1-en-1-yl]methyl}piperazin-1-yl)-2-[(6-fluoro-1H-indol-5-yl)oxy]-N-[(4-{[(3S,4R)-3-hydroxy-1-(1,3-thiazol-4-ylmethyl)piperidin-4-yl]amino}-3-nitrophenyl)sulfonyl]benzamide], which Ki is on record?
Answer: The Ki was 0.168 nM.

Question: For `CN1CCC(Nc2ccc(S(=O)(=O)NC(=O)c3ccc(N4CCN(CC5=C(c6ccc(Cl)cc6)CC(C)(C)CC5)CC4)cc3Oc3cnc(N)c(Cl)c3)cc2S(=O)(=O)C(F)(F)F)CC1` [Example 354, 2-[(6-amino-5-chloropyridin-3-yl)oxy]-4-(4-{[2-(4-chlorophenyl)-4,4-dimethylcyclohex-1-en-1-yl]methyl}piperazin-1-yl)-N-({4-[(1-methylpiperidin-4-yl)amino]-3-[(trifluoromethyl)sulfonyl]phenyl}sulfonyl)benzamide], which Ki is on record?
Answer: Its Ki is 0.114 nM.

Question: `CN(C)Cc1cccc(Oc2cc(N3CCN(Cc4ccccc4-c4ccc(Cl)cc4)CC3)ccc2C(=O)NS(=O)(=O)c2ccc(NCC3CCOCC3)c([N+](=O)[O-])c2)c1` [Example 1, 4-(4-((4′-chloro-1,1′-biphenyl-2-yl)methyl)piperazin-1-yl)-2-(3-((dimethylamino)methyl)phenoxy)-N-((3-nitro-4-((tetrahydro-2H-pyran-4-ylmethyl)amino)phenyl)sulfonyl)benzamide] was tested. Which Ki did it give?
Answer: The Ki was 8.35 nM.

Question: How did the Ki turn out when `CC1(C)CCC(c2ccc(Cl)cc2)=C(CN2CCN(c3ccc(C(=O)NS(=O)(=O)c4ccc(NCC5CCOCC5)c([N+](=O)[O-])c4)c(Oc4cc5cc[nH]c5cc4F)c3)CC2)C1` [Example 262, 4-(4-{[2-(4-chlorophenyl)-5,5-dimethylcyclohex-1-en-1-yl]methyl}piperazin-1-yl)-2-[(6-fluoro-1H-indol-5-yl)oxy]-N-({3-nitro-4-[(tetrahydro-2H-pyran-4-ylmethyl)amino]phenyl}sulfonyl)benzamide] was run?
Answer: Its Ki is 0.276 nM.

Question: `CC(C)(C)OC(=O)N1CCN(c2ccc(Oc3cc(N4CCN(Cc5ccccc5-c5ccc(Cl)cc5)CC4)ccc3C(=O)NS(=O)(=O)c3ccc(NCCCN4CCOCC4)c([N+](=O)[O-])c3)cc2)CC1` [Example 97, tert-butyl 4-(4-(5-(4-((4′-chloro-1,1′-biphenyl-2-yl)methyl)piperazin-1-yl)-2-((((4-((3-morpholin-4-ylpropyl)amino)-3-nitrophenyl)sulfonyl)amino)carbonyl)phenoxy)phenyl)piperazine-1-carboxylate] was tested. Which Ki did it give?
Answer: The Ki was 147 nM.

Question: For `Cc1nc2cc(Oc3cc(N4CCN(Cc5ccccc5-c5ccc(Cl)cc5)CC4)ccc3C(=O)NS(=O)(=O)c3ccc(NCC4CCOCC4)c([N+](=O)[O-])c3)ccc2s1` [Example 90, 4-(4-((4′-chloro-1,1′-biphenyl-2-yl)methyl)piperazin-1-yl)-2-((2-methyl-1,3-benzothiazol-5-yl)oxy)-N-((3-nitro-4-((tetrahydro-2H-pyran-4-ylmethyl)amino)phenyl)sulfonyl)benzamide], which Ki is on record?
Answer: Its Ki is 10.6 nM.

Question: `CC1(C)CCC(CN2CCN(c3ccc(C(=O)NS(=O)(=O)c4ccc(NCCCN5CCNC(=O)C5)c([N+](=O)[O-])c4)c(Oc4cc(F)cc5[nH]ccc45)c3)CC2)=C(c2ccc(Cl)cc2)C1` [Example 257, 4-(4-{[2-(4-chlorophenyl)-4,4-dimethylcyclohex-1-en-1-yl]methyl}piperazin-1-yl)-2-[(6-fluoro-1H-indol-4-yl)oxy]-N-[(3-nitro-4-{[3-(3-oxopiperazin-1-yl)propyl]amino}phenyl)sulfonyl]benzamide] was tested. Which Ki did it give?
Answer: Its Ki is 0.097 nM.

Question: Which Ki does the source give for `CC1(C)CC(c2ccc(Cl)cc2)=C(CN2CCN(c3ccc(C(=O)NS(=O)(=O)c4ccc(NCC5CCOCC5)c([N+](=O)[O-])c4)c(Oc4cc5cc[nH]c5cc4F)c3)CC2)CO1` [Example 277, 4-(4-{[4-(4-chlorophenyl)-6,6-dimethyl-5,6-dihydro-2H-pyran-3-yl]methyl}piperazin-1-yl)-2-[(6-fluoro-1H-indol-5-yl)oxy]-N-({3-nitro-4-[(tetrahydro-2H-pyran-4-ylmethyl)amino]phenyl}sulfonyl)benzamide] here?
Answer: Its Ki is 0.017 nM.

Question: For `CC1(C)CCC(CN2CCN(c3ccc(C(=O)NS(=O)(=O)c4cnc(OCC5CCC(F)(F)CC5)c(Cl)c4)c(Oc4cnc(N)c(Cl)c4)c3)CC2)=C(c2ccc(Cl)cc2)C1` [Example 409, 2-[(6-amino-5-chloropyridin-3-yl)oxy]-N-({5-chloro-6-[(4,4-difluorocyclohexyl)methoxy]pyridin-3-yl}sulfonyl)-4-(4-{[2-(4-chlorophenyl)-4,4-dimethylcyclohex-1-en-1-yl]methyl}piperazin-1-yl)benzamide], which Ki is on record?
Answer: Its Ki is 0.686 nM.

Question: Which Ki does the source give for `CC1(C)CCC(CN2CCN(c3ccc(C(=O)NS(=O)(=O)c4cnc(OC5CCN(C6CCOCC6)CC5)c(C#N)c4)c(Oc4cc5cc[nH]c5cc4F)c3)CC2)=C(c2ccc(Cl)cc2)C1` [Example 325, 4-(4-{[2-(4-chlorophenyl)-4,4-dimethylcyclohex-1-en-1-yl]methyl}piperazin-1-yl)-N-({5-cyano-6-[(1-tetrahydro-2H-pyran-4-ylpiperidin-4-yl)oxy]pyridin-3-yl}sulfonyl)-2-[(6-fluoro-1H-indol-5-yl)oxy]benzamide] here?
Answer: Its Ki is 0.183 nM.
